Results published in ChEMBL document CHEMBL1201862, “PubChem BioAssay data set” (2004).
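Each compound was tested at five concentrations against cells in 96-well plates for 48 hours. GI50 marks 50% less growth.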 Active and inactive are the calls of the source. Cut-off read from the data, not from the text of the source: active = GI50 up to about 1.1 µM and inactive = higher.

Assays:
Test in all cases: NCI anticancer screen, dose series, 48 h
OVCAR-8 = tested on: OVCAR-8
MDA-N = tested on: MDA-N
ACHN = tested on: ACHN
MOLT-4 = tested on: MOLT-4
SF-539 = tested on: SF-539
SK-OV-3 = tested on: SK-OV-3
COLO 205 = tested on: COLO 205
U-251 = tested on: U-251
SK-MEL-28 = tested on: SK-MEL-28
MDA-MB-231 = tested on: MDA-MB-231
KM12 = tested on: KM12
RPMI-8226 = tested on: RPMI-8226
NCI-H23 = tested on: NCI-H23
K562 = tested on: K562
OVCAR-4 = tested on: OVCAR-4
A498 = tested on: A498
MDA-MB-435 = tested on: MDA-MB-435
786-0 = tested on: 786-0
SNB-19 = tested on: SNB-19
DU-145 = tested on: DU-145

Row | SMILES | GI50 (OVCAR-8) | GI50 (MDA-N) | GI50 (ACHN) | GI50 (MOLT-4) | GI50 (SF-539) | GI50 (SK-OV-3) | GI50 (COLO 205) | GI50 (U-251) | GI50 (SK-MEL-28) | GI50 (MDA-MB-231) | GI50 (KM12) | GI50 (RPMI-8226) | GI50 (NCI-H23) | GI50 (K562) | GI50 (OVCAR-4) | GI50 (A498) | GI50 (MDA-MB-435) | GI50 (786-0) | GI50 (SNB-19) | GI50 (DU-145)
1 | O=S1(=O)c2ccccc2NC(=S)N1c1ccccc1 | 34.6 µM (inactive) | 36 µM (inactive) | 70.6 µM (inactive) | 29.5 µM (inactive) | > 100 µM (inactive) | > 100 µM (inactive) | 77.8 µM (inactive) | > 72.3 µM (inactive) | > 89.9 µM (inactive) | > 57.8 µM (inactive) | > 77.1 µM (inactive) | > 59.2 µM (inactive) | 46.3 µM (inactive) | 49.1 µM (inactive) | 53.3 µM (inactive) | > 58.9 µM (inactive) | 50.1 µM (inactive) | > 87.3 µM (inactive) | 7.1 µM (inactive) | 87.1 µM (inactive)
2 | CC(C)(C)N(Cc1ccccc1)C(=O)/C=C\[S+]([O-])c1ccccc1 (stereo not given) | 1.84 µM (inactive) | 2.16 µM (inactive) | 4.71 µM (inactive) | 2.03 µM (inactive) | 3.94 µM (inactive) | 7.62 µM (inactive) | 4.72 µM (inactive) | 3.88 µM (inactive) | 7.73 µM (inactive) | 3.27 µM (inactive) | 5.69 µM (inactive) | 1.84 µM (inactive) | 2.86 µM (inactive) | 2.22 µM (inactive) | 2.32 µM (inactive) | 13.4 µM (inactive) | 2.65 µM (inactive) | 1.83 µM (inactive) | 9.77 µM (inactive) | 3.85 µM (inactive)
3 | O=C(CSc1n[nH]c(=O)[nH]c1=O)NNC(=O)c1cccc2nc3ccccc3nc12 | > 100 µM (inactive) | 35.6 µM (inactive) | > 100 µM (inactive) | > 100 µM (inactive) | 71.6 µM (inactive) | > 100 µM (inactive) | 31.8 µM (inactive) | > 100 µM (inactive) | > 100 µM (inactive) | > 100 µM (inactive) | 79.3 µM (inactive) | > 100 µM (inactive) | 35.9 µM (inactive) | > 100 µM (inactive) | > 100 µM (inactive) | > 100 µM (inactive) | 35.4 µM (inactive) | > 100 µM (inactive) | 64.1 µM (inactive) | 36.5 µM (inactive)
4 | O=C1N/N=C\c2ccc(cc2)OCc2cccc(n2)COc2ccc(cc2)/C=N\NC1=O | > 25 µM (inactive) | > 25 µM (inactive) | > 25 µM (inactive) | > 25 µM (inactive) | > 25 µM (inactive) | > 25 µM (inactive) | > 25 µM (inactive) | > 25 µM (inactive) | > 25 µM (inactive) | > 25 µM (inactive) | > 25 µM (inactive) | > 25 µM (inactive) | > 25 µM (inactive) | > 25 µM (inactive) | > 25 µM (inactive) | > 25 µM (inactive) | > 25 µM (inactive) | > 25 µM (inactive) | > 25 µM (inactive) | > 25 µM (inactive)
5 | O=C1c2ccccc2C(=O)c2c1ccc1c3ccccc3n(-c3ccccc3)c21 | 27.2 µM (inactive) | 25 µM (inactive) | 17.3 µM (inactive) | 2.3 µM (inactive) | 19.1 µM (inactive) | > 100 µM (inactive) | 16.9 µM (inactive) | 32.7 µM (inactive) | 17.9 µM (inactive) | 22.4 µM (inactive) | 29.2 µM (inactive) | 7.24 µM (inactive) | 15.4 µM (inactive) | 6.61 µM (inactive) | 18.8 µM (inactive) | 46 µM (inactive) | 9.31 µM (inactive) | 21.3 µM (inactive) | 75.5 µM (inactive) | 18.7 µM (inactive)
6 | Cc1cccc(NC(Nc2cccc(C)c2)=C(C(Cl)=C(Cl)Cl)[N+](=O)[O-])c1 | 12.3 µM (inactive) | 7.45 µM (inactive) | 15.7 µM (inactive) | 2.17 µM (inactive) | 10.1 µM (inactive) | 22.3 µM (inactive) | 12.6 µM (inactive) | 12.6 µM (inactive) | 17.3 µM (inactive) | 3.38 µM (inactive) | 19.5 µM (inactive) | 8.11 µM (inactive) | 9.12 µM (inactive) | 50.8 µM (inactive) | 22.8 µM (inactive) | 36.7 µM (inactive) | 8.87 µM (inactive) | 14.7 µM (inactive) | 25.8 µM (inactive) | 18.7 µM (inactive)
7 | CCO[C@H]1O[C@@H]2OC3(C)CCC4[C@H](C)CCC([C@H]1C)[C@]42OO3 (stereo not given in full) | 0.881 µM (active) | 49.7 µM (inactive) | 32.2 µM (inactive) | 7.91 µM (inactive) | > 84.7 µM (inactive) | > 100 µM (inactive) | 2.98 µM (inactive) | 42.7 µM (inactive) | > 75.5 µM (inactive) | > 57 µM (inactive) | > 53.2 µM (inactive) | 3.3 µM (inactive) | 32.1 µM (inactive) | 15.9 µM (inactive) | 25.8 µM (inactive) | > 100 µM (inactive) | 19.1 µM (inactive) | 57.5 µM (inactive) | > 100 µM (inactive) | > 100 µM (inactive)
